Laboratory results published in ChEMBL document CHEMBL1140820, “beta-N-Biaryl ether sulfonamide hydroxamates as potent gelatinase inhibitors: part 2. Optimization of alpha-amino substituents” (Bioorg Med Chem Lett, 2008).

How the values were obtained:
[1] = biological target: Matrix metalloproteinase-9 (Homo sapiens, UniProt P14780); test: Inhibition of MMP9
[2] = biological target: T1, Interstitial collagenase (Homo sapiens, UniProt P03956); test: Inhibition of MMP1
T1 sequence (P03956 whole entry): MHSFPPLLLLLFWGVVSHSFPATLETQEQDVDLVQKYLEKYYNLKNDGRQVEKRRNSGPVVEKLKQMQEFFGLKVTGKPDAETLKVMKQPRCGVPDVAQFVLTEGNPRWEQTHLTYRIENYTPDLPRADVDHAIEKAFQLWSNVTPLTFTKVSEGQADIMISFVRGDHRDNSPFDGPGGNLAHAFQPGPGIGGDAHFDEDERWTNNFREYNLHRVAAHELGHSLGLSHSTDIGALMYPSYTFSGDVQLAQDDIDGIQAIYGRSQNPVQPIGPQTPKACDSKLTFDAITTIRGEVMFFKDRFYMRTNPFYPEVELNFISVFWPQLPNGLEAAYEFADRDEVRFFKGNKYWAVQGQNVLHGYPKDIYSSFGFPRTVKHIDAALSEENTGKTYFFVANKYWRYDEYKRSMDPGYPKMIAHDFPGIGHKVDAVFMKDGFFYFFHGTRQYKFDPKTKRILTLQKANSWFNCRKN

[3] = Selectivity for MMP9 over MMP2
[4] = biological target: 72 kDa type IV collagenase (Homo sapiens, UniProt P08253); test: Inhibition of MMP2
[5] = Cmax in rat at 0.5 mg/kg, iv; format: ADME, organism-based; parameters: dose 0.5 mg/kg, route intravenous; settings: in vivo
[6] = Apparent elimination half life in rat at 0.5 mg/kg, iv; format: ADME, organism-based; parameters: dose 0.5 mg/kg, route intravenous; settings: in vivo, read-out: beta t1/2 (converted)
[7] = AUC in rat at 0.5 mg/kg, iv; format: ADME, organism-based; parameters: dose 0.5 mg/kg, route intravenous; settings: plasma
[8] = Volume of distribution at steady state in rat at 0.5 mg/kg, iv; format: ADME, organism-based; parameters: dose 0.5 mg/kg, route intravenous; settings: in vivo, read-out: Vdss
[9] = Clearance in rat at 0.5 mg/kg, iv; format: ADME, organism-based; parameters: dose 0.5 mg/kg, route intravenous; settings: in vivo
[10] = Metabolic stability in human liver microsomes assessed as half life […]; format: ADME, Microsome
[11] = Metabolic stability in rat liver microsomes assessed as half life […]; format: ADME, Microsome
[12] = Protein binding in rat at 0.5 mg/kg, iv; format: ADME, organism-based; parameters: dose 0.5 mg/kg, route intravenous; settings: plasma, read-out: PPB (converted)
[13] = Aqueous solubility at pH 2.0; format: physicochemical
[14] = test system: Rattus norvegicus; test: Reduction of ischemia induced brain edema in Sprague-Dawley rat tMCAo model at 2 mg/kg, iv after 3 hrs; format: functional; parameters: scale not given: the % may be the effect or the level left
[15] = Aqueous solubility at pH 7.0; format: physicochemical
[16] = biological target: Collagenase 3 (Homo sapiens, UniProt P45452); test: Inhibition of MMP13

Chain of 72 kDa type IV collagenase (P08253 whole entry): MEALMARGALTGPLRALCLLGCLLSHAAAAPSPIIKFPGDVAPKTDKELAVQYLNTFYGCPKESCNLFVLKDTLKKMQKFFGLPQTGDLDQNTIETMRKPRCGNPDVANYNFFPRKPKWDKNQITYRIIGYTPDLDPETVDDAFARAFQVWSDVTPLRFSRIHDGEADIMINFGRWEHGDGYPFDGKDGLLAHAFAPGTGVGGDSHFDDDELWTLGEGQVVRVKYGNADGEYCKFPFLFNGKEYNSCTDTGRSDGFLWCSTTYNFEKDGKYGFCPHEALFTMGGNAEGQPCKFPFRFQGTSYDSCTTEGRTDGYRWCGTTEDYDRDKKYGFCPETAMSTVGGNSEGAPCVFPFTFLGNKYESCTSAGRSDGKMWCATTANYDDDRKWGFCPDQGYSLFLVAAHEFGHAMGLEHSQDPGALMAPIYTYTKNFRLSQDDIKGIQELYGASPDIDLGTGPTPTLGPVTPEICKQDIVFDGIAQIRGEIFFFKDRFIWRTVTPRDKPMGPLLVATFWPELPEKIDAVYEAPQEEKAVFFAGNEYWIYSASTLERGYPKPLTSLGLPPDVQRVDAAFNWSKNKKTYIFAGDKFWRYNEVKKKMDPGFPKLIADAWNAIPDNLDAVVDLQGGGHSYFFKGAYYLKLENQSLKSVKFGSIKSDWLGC
Chain of Matrix metalloproteinase-9 (P14780 whole entry): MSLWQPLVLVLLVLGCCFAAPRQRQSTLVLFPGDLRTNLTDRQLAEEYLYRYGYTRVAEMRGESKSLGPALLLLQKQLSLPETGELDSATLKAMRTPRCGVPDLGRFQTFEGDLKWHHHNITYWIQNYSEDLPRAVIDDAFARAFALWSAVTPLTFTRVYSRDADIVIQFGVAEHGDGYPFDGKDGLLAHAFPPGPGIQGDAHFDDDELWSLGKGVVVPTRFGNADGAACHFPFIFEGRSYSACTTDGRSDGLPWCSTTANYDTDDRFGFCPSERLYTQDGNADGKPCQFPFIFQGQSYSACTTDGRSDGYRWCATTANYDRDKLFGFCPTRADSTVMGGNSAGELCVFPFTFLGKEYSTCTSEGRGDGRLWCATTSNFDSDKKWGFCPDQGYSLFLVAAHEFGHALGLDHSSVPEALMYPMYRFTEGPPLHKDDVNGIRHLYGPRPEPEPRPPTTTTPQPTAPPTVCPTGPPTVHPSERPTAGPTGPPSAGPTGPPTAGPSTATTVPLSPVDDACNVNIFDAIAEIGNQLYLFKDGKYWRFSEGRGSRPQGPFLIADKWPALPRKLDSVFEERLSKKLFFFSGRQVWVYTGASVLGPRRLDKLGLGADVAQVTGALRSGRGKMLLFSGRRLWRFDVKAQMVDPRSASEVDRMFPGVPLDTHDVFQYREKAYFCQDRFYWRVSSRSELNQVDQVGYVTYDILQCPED

SMILES: CC(C)N[C@@H](CN(c1ccc(Oc2ccc(C(F)(F)F)cc2)cc1)S(C)(=O)=O)C(=O)NO
- IC50 [1]: 2.4 nM
- IC50 [2]: > 10000 nM
- Ratio IC50 [3]: 3.8

SMILES: COc1cccc(N[C@@H](CN(c2ccc(Oc3ccc(C)cc3)cc2)S(C)(=O)=O)C(=O)NO)c1
- IC50 [2]: > 10000 nM
- Ratio IC50 [3]: 43.5

SMILES: Cc1ccc(Oc2ccc(N(C[C@H](Nc3cccc(Cl)c3)C(=O)NO)S(C)(=O)=O)cc2)cc1
- IC50 [1]: 20 nM
- Ratio IC50 [3]: 16.6

SMILES: Cc1ccc(Oc2ccc(N(C[C@H](O)C(=O)NO)S(C)(=O)=O)cc2)cc1
- IC50 [4]: 61 nM
- IC50 [1]: 7.8 nM

SMILES: CS(=O)(=O)N(C[C@@H](C(=O)NO)N1CCS(=O)(=O)CC1)c1ccc(Oc2ccc(C(F)(F)F)cc2)cc1
- IC50 [4]: 4.8 nM
- IC50 [1]: 1.7 nM
- Ratio IC50 [3]: 2.8

SMILES: CS(=O)(=O)N(C[C@@H](C(=O)NO)N1CCCCC1)c1ccc(Oc2ccc(C(F)(F)F)cc2)cc1
- IC50 [1]: 2.3 nM
- Ratio IC50 [3]: 3.3

SMILES: Cc1ccc(Oc2ccc(N(C[C@H](NCc3ccccn3)C(=O)NO)S(C)(=O)=O)cc2)cc1
- Ratio IC50 [3]: 3.6

SMILES: Cc1ccc(Oc2ccc(N(C[C@H](Nc3cccc(F)c3)C(=O)NO)S(C)(=O)=O)cc2)cc1
- IC50 [1]: 0.89 nM
- Ratio IC50 [3]: 59.6
- Cmax [5]: 620 nM
- half-life [6]: 36 min
- AUC [7]: 130 ng·h/mL
- Vd [8]: 2.89 L/kg
- clearance [9]: 66.9 mL/min/kg
- half-life [10]: < 9 min
- half-life [11]: < 9 min
- fraction unbound [12]: 0.003

SMILES: Cc1ccc(Oc2ccc(N(C[C@H](N[C@@H](C)c3ccccc3)C(=O)NO)S(C)(=O)=O)cc2)cc1
- IC50 [4]: 12 nM
- IC50 [2]: > 10000 nM
- Ratio IC50 [3]: 22.2

SMILES: CS(=O)(=O)N(C[C@@H](C(=O)NO)N1CCOCC1)c1ccc(Oc2ccc(C(F)(F)F)cc2)cc1
- Ratio IC50 [3]: 3.2
- solubility [13]: > 70 µg/mL
- Activity [14]: 3.3%
- Cmax [5]: 860 nM
- half-life [6]: 12 min
- AUC [7]: 130 ng·h/mL
- Vd [8]: 0.99 L/kg
- clearance [9]: 65.4 mL/min/kg
- half-life [10]: > 120 min
- half-life [11]: > 120 min
- fraction unbound [12]: 0.26
- solubility [15]: > 70 µg/mL

SMILES: Cc1ccc(Oc2ccc(N(C[C@H](NC(C)C)C(=O)NO)S(C)(=O)=O)cc2)cc1
- IC50 [4]: 4 nM
- IC50 [1]: 0.52 nM
- Ratio IC50 [3]: 7.7
- Cmax [5]: 2680 nM
- half-life [6]: 9.6 min
- AUC [7]: 250 ng·h/mL
- Vd [8]: 0.49 L/kg
- clearance [9]: 35 mL/min/kg
- half-life [10]: 49 min
- half-life [11]: < 9 min
- fraction unbound [12]: 0.16

SMILES: Cc1ccc(Oc2ccc(N(C[C@@H](C(=O)NO)N3CCOCC3)S(C)(=O)=O)cc2)cc1
- IC50 [4]: 5.2 nM
- IC50 [1]: 1.9 nM
- Ratio IC50 [3]: 2.7
- solubility [13]: > 70 µg/mL
- Cmax [5]: 3700 nM
- half-life [6]: 360 min
- AUC [7]: 670 ng·h/mL
- Vd [8]: 0.66 L/kg
- clearance [9]: 12.8 mL/min/kg
- half-life [10]: > 120 min
- half-life [11]: 10 min
- fraction unbound [12]: 0.42
- solubility [15]: > 70 µg/mL

SMILES: CS(=O)(=O)N(C[C@@H](C(=O)NO)N1CCOCC1)c1ccc(Oc2ccc(Cl)cc2)cc1
- Ratio IC50 [3]: 2.8

SMILES: Cc1ccc(Oc2ccc(N(C[C@H](Nc3ccc4ccccc4c3)C(=O)NO)S(C)(=O)=O)cc2)cc1
- IC50 [4]: 1400 nM
- Ratio IC50 [3]: 16.6

SMILES: CC(C)N(C)[C@@H](CN(c1ccc(Oc2ccc(C(F)(F)F)cc2)cc1)S(C)(=O)=O)C(=O)NO
- IC50 [4]: 24 nM
- IC50 [1]: 8.8 nM
- Ratio IC50 [3]: 2.7

SMILES: Cc1ccc(Oc2ccc(N(C[C@@H](NC(C)C)C(=O)NO)S(C)(=O)=O)cc2)cc1
- IC50 [4]: 178 nM
- IC50 [1]: 31 nM
- Ratio IC50 [3]: 5.7

SMILES: Cc1ccc(Oc2ccc(N(C[C@H](NCc3ccccc3)C(=O)NO)S(C)(=O)=O)cc2)cc1
- Ratio IC50 [3]: 28.4

SMILES: Cc1ccc(Oc2ccc(N(C[C@H](Nc3ccccc3)C(=O)NO)S(C)(=O)=O)cc2)cc1
- IC50 [4]: 13 nM
- IC50 [1]: 0.52 nM
- Ratio IC50 [3]: 25

SMILES: C[C@@H]1CN([C@@H](CN(c2ccc(Oc3ccc(Cl)cc3)cc2)S(C)(=O)=O)C(=O)NO)C[C@H](C)O1
- IC50 [4]: 2.5 nM
- IC50 [1]: 0.46 nM
- Ratio IC50 [3]: 5.4

SMILES: Cc1ccc(Oc2ccc(N(C[C@H](C(=O)NO)N3CCOCC3)S(C)(=O)=O)cc2)cc1
- Ratio IC50 [3]: 4.5

SMILES: CS(=O)(=O)N(C[C@@H](C(=O)NO)N1CCC(c2ccccc2)CC1)c1ccc(Oc2ccc(C(F)(F)F)cc2)cc1
- Ratio IC50 [3]: 2.7

SMILES: Cc1ccc(Oc2ccc(N(C[C@H](NCc3cccnc3)C(=O)NO)S(C)(=O)=O)cc2)cc1
- IC50 [4]: 17 nM
- IC50 [1]: 2.8 nM
- Ratio IC50 [3]: 6.1

SMILES: CC(C)N(CCNC(=O)OCc1ccccc1)[C@@H](CN(c1ccc(Oc2ccc(C(F)(F)F)cc2)cc1)S(C)(=O)=O)C(=O)NO
- Ratio IC50 [3]: 9

SMILES: C[C@@H]1CN([C@@H](CN(c2ccc(Oc3ccc(C(F)(F)F)cc3)cc2)S(C)(=O)=O)C(=O)NO)C[C@H](C)O1
- IC50 [4]: 5.6 nM
- IC50 [1]: 1.1 nM
- Ratio IC50 [3]: 5.1

SMILES: CS(=O)(=O)N(C[C@@H](C(=O)NO)N1CCN(c2ccc(Cl)cc2)CC1)c1ccc(Oc2ccc(C(F)(F)F)cc2)cc1
- Ratio IC50 [3]: 2.7

SMILES: Cc1ccc(Oc2ccc(N(C[C@H](NCc3ccncc3)C(=O)NO)S(C)(=O)=O)cc2)cc1
- IC50 [1]: 1.8 nM
- Ratio IC50 [3]: 5.3

SMILES: Cc1ccc(Oc2ccc(N(C[C@H](NCC(C)C)C(=O)NO)S(C)(=O)=O)cc2)cc1
- IC50 [4]: 11 nM
- IC50 [1]: 1.3 nM
- IC50 [2]: > 10000 nM
- Ratio IC50 [3]: 8.8

SMILES: CC(=O)N1CCN([C@@H](CN(c2ccc(Oc3ccc(C(F)(F)F)cc3)cc2)S(C)(=O)=O)C(=O)NO)CC1
- Ratio IC50 [3]: 1.8

SMILES: O=C1NC(=O)C2(CCC(=O)N2c2ccc(Oc3ccc(Cl)cc3)cc2)C(=O)N1
- Ki [4]: 0.4 nM
- Ki [1]: 0.7 nM
- Ki [16]: 1 nM

SMILES: CS(=O)(=O)N(C[C@H](O)C(=O)NO)c1ccc(Oc2ccc(C(F)(F)F)cc2)cc1
- IC50 [4]: 139 nM
- IC50 [1]: 14 nM
- IC50 [2]: > 10000 nM
- Ratio IC50 [3]: 9.9

SMILES: CS(=O)(=O)N(C[C@@H](C(=O)NO)N1CCC(O)CC1)c1ccc(Oc2ccc(C(F)(F)F)cc2)cc1
- IC50 [4]: 5.7 nM
- IC50 [1]: 1.9 nM
- Ratio IC50 [3]: 3

SMILES: Cc1ccc(Oc2ccc(N(C[C@H](NC3CCCC3)C(=O)NO)S(C)(=O)=O)cc2)cc1
- Ratio IC50 [3]: 5.9

SMILES: Cc1ccc(Oc2ccc(N(C[C@H](N[C@H](C)c3ccccc3)C(=O)NO)S(C)(=O)=O)cc2)cc1
- IC50 [1]: 1.5 nM
- Ratio IC50 [3]: 16

SMILES: CC(C)N(Cc1ccccc1)[C@@H](CN(c1ccc(Oc2ccc(C(F)(F)F)cc2)cc1)S(C)(=O)=O)C(=O)NO
- Ratio IC50 [3]: 4.1

SMILES: Cc1ccc(Oc2ccc(N(C[C@H](N)C(=O)NO)S(C)(=O)=O)cc2)cc1
- Ratio IC50 [3]: 5.5

SMILES: Cc1ccc(Oc2ccc(N(C[C@H](NC(=O)C(C)C)C(=O)NO)S(C)(=O)=O)cc2)cc1
- IC50 [4]: 70 nM
- IC50 [1]: 5.4 nM
- Ratio IC50 [3]: 13

SMILES: Cc1ccc(Oc2ccc(N(C[C@@H](C(=O)NO)N3C[C@@H](C)O[C@@H](C)C3)S(C)(=O)=O)cc2)cc1
- Ratio IC50 [3]: 4.1

SMILES: Cc1ccc(Oc2ccc(N(C[C@H](NC(C)C)C(=O)O)S(C)(=O)=O)cc2)cc1
- IC50 [4]: > 10000 nM
- IC50 [1]: > 10000 nM
- IC50 [2]: > 10000 nM

SMILES: CS(=O)(=O)N1CCN([C@@H](CN(c2ccc(Oc3ccc(C(F)(F)F)cc3)cc2)S(C)(=O)=O)C(=O)NO)CC1
- IC50 [4]: 9.9 nM
- IC50 [1]: 3.2 nM
- Ratio IC50 [3]: 3.1

SMILES: CNC(=O)C1CCN([C@@H](CN(c2ccc(Oc3ccc(C(F)(F)F)cc3)cc2)S(C)(=O)=O)C(=O)NO)CC1
- IC50 [4]: 5.5 nM
- IC50 [1]: 2.5 nM
- Ratio IC50 [3]: 2.2

SMILES: CS(=O)(=O)N(C[C@H](O)C(=O)NO)c1ccc(Oc2ccc(Cl)cc2)cc1
- IC50 [4]: 35 nM
- IC50 [1]: 4.7 nM
- Ratio IC50 [3]: 7.4

SMILES: Cc1ccc(Oc2ccc(N(C[C@H](Nc3ccc(F)cc3)C(=O)NO)S(C)(=O)=O)cc2)cc1
- IC50 [1]: 1.3 nM
- Ratio IC50 [3]: 49.2
